The values below are quoted from earlier work in patent US7041008B2, “Golf ball with sulfur cured inner component” (priority 1993, dated 2006).

Turning to “2,2′-bis(t-butylperoxy)-di-iso-propylbenzene”, the “Acute oral LD50” value is >23,000 mg/kg.

Consider `CC1CC(C)(C)CC(OOC(C)(C)C)(OOC(C)(C)C)C1` (stereo not drawn) [1,1-bis(t-butylperoxy)-3,3,5-trimethyl cyclohexane], for which the “Acute oral LD50” value is >13,000 mg/kg.

Consider `CC(C)(C)OOC(C)(C)CCC(C)(C)OOC(C)(C)C` [2,5-dimethyl-2,5-di(t-butylperoxy) hexane], for which the “Acute oral LD50” value is on record as >32,000 mg/kg.

For `C1CN(SSN2CCOCC2)CCO1` [4,4″-dithiodimorpholine], the “Acute oral LD50” value was 5,600 mg/kg.

As to `O=C1CCCCCN1SSN1CCCCCC1=O` [N,N′-caprolactum disulfide], the “Acute oral LD50” value is 3,620 mg/kg.

In the case of `O=C(OOC(=O)c1ccccc1)c1ccccc1` [benzoyl peroxide], the “Acute oral LD50” value is >5,000 mg/kg.

In the case of `CC(C)(OOC(C)(C)c1ccccc1)c1ccccc1` [dicumyl peroxide], the “Acute oral LD50” value is on record as 4,100 mg/kg.

Turning to `CCCCOC(=O)CCC(C)(OOC(C)(C)C)OOC(C)(C)C` [n-butyl 4,4-bis(t-butyl-peroxy) valerate], the “Acute oral LD50” value is recorded as 5,000 mg/kg.

`CC(C)(C)OOC(=O)c1ccccc1` [t-butyl perbenzoate]: the “Acute oral LD50” value is >3,600 mg/kg.
